# Measurements as given in patent US20140121168A1, “ANTAGONISTS OF TRPV1 RECEPTOR” (ANTAGONISTS OF TRPV1 RECEPTOR, priority 2011, published 2014).
# Where a SMILES comes first, the peptide text is derived from it. Bridges are numbered along the chain shown (N, C = ends). [ ]: non-standard residue; d: D form. d(aThr) = C[C@@H](O)[C@@H](N)C(=O)O; Dhb = C/C=C(\N)C(=O)O
# Target: TRPV1 (Homo sapiens, UniProt Q8NER1)
# Experiment: TRPV1 assays, inhibition of capsaicin response (cell line not stated for the IC50 values)
# Chain of TRPV1 (Q8NER1 whole entry): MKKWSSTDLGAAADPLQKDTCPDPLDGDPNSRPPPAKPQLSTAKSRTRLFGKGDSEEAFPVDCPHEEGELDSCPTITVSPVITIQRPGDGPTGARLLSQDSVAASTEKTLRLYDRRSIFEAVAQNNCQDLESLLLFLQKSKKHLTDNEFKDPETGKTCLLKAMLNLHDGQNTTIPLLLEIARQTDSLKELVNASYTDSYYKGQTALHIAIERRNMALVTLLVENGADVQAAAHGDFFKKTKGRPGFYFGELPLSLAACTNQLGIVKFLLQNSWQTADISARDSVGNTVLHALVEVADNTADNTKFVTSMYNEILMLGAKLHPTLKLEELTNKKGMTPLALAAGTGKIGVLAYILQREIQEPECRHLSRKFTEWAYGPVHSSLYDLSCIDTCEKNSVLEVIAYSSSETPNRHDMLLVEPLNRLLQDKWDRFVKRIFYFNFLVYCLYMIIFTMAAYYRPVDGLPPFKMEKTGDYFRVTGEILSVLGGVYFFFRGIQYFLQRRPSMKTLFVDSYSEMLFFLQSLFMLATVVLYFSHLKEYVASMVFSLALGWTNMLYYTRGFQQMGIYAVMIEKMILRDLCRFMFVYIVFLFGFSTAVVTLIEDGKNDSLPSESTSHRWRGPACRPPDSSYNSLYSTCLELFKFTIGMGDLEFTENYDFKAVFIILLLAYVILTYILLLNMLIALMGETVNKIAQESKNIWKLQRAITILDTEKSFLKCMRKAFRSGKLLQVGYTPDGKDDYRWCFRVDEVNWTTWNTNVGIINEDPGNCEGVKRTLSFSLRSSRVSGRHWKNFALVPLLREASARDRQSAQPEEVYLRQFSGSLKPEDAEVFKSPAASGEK
row,Compound,inhibitory activity on TRPV1 (in words)
1,"C/C=C1\NC(=O)[C@H](C)NC(=O)[C@H](C(C)C)NC(=O)[C@H](NC(=O)[C@H](Cc2ccccc2)NC(=O)[C@@H](CC(C)C)NC(=O)[C@@H](Cc2ccccc2)NC(C)=O)[C@@H](C)OC1=O [compound 1, A-3302-B] (Ac-[dF][dL]F[d(aThr)]VA[Dhb]; ester 4-C)",substantial inhibitory activity
2,Nobilamide E [compound 8],inactive
